# Assay results reported in US20100286186A1, “NOVEL DICARBOXYLIC ACID LINKED AMINO ACID AND PEPTIDE PRODRUGS OF OPIOIDS AND USES THEREOF” (Shire LLC, priority 2009, published 2010).
# Several values for one entry are separate records, joined by “and”; a condition that tells them apart may be missing. Identical values can stand only once. Marks after values point to notes of the source that are not given here.
# What was measured:
# [1] = tested on: guinea pig small intestine myenteric plexus longitudinal muscle; test: Ex vivo smooth muscle contractility, electrical field stimulation response of isolated guinea pig small intestine; details: for EC50: Cavia porcellus, isolated guinea pig ileum, concentration as free base of opioid, read-out: EC50, opioid effect on electrical field stimulation response
# [2] = Bioavailability of oxycodone, codeine and dihydrocodeine from their succinyl valine ester prodrugs in the dog (oral gavage, two-way crossover); details: dogs; for T>50%Cmax of oxycodone: 1 mg free base equivalents oxycodone/kg; for T>50%Cmax of dihydrocodeine: 1 mg free base equivalents dihydrocodeine/kg
# Method: The characteristics of the test animals are set out in Table 10, below.
# Blood samples were taken at various times after administration and submitted to analysis for the parent drug and pro-drug using a validated LC-MS-MS assay. Pharmacokinetic parameters derived from the plasma analytical data were determined using Win Nonlin.
# gut motility in the rat = test: Charcoal propulsion test of GI motility in the rat; assay type: in vivo; details: oral; for delay of the passage of the charcoal meal (gut motility): 30 mg/kg or equimolar dose
# Method: Test treatments were administered to groups of up to 10 rats fasted overnight prior to the test.
# Test treatments were administered orally 60 minutes prior to a 2.0 mL oral dose of a 10% suspension of charcoal in 5% gum arabic. Thirty minutes after dosing with charcoal, the rats were sacrificed and the entire gastro-intestinal tract quickly and carefully removed. The distance the charcoal meal had traveled from the pyloric sphincter toward the caecum was measured and expressed as a percentage of both the total gut length and the length of the small intestine.
# [3] = Comparative pharmacokinetics of oxycodone in the cynomolgus monkey after oral administration
# [4] = Systemic availability of oxycodone after intranasal insufflation to dogs; details: nominal […] equivalents; for half-life: t½ of intact prodrug
# [5] = In vitro stability of dicarboxylate amino acid ester prodrugs in simulated gastric and intestinal juice, distilled water and pH 10 buffer (HPLC)
# [6] = Comparative pharmacokinetics of oxycodone after oral administration to female Sprague Dawley rats; details: 10 mg oxycodone free base equivalents/kg; for T>50%Cmax of oxycodone: oral
# [7] = Comparative oral bioavailability of oxycodone from various dicarboxylate bridged amino acid prodrugs in dogs (nine-way crossover); assay type: in vivo, dog; details: 1 mg/kg oxycodone free base, mean (±sd)
# [8] = in vivo; cited from earlier work
# [9] = Plasma pharmacokinetics of meptazinol dicarboxylate linked prodrugs after oral gavage to dogs; assay type: in vivo, dog; details: dog, plasma, 1 mg meptazinol base equivalents/kg body weight, oral, read-out: expected Cmax of meptazinol after giving the drug itself
# [10] = cited from earlier work
# [11] = in vivo; cited from earlier work; remark: listed apart in the source
# [12] = rat model; cited from earlier work
# [13] = male cynomolgus monkeys, oral prodrug, 1 mg oxycodone free base equivalents/kg, individual monkeys 1-5
# [14] = male cynomolgus monkeys, oral, 1 mg oxycodone free base equivalents/kg, mean (n=5)
# [15] = oral prodrug, individual rats, listed as Oxycodone succinyl valine enol ester
# [16] = oral gavage, individual dogs 1-5
molecule,measurement,setting,value
"COc1ccc2c3c1O[C@H]1[C@@H](OC(=O)CCC(=O)NC(C(=O)O)C(C)C)C=CC4[C@@H](C2)N(C)CC[C@@]341 (stereo in doubt) [Codeine-[succinyl-(S)-valine] ester, codeine-[succinyl-(S)-valine]ester]",EC50,[1],6.3 µM
same,reduction in potency compared to parent drug,[1]; guinea pig ileal smooth muscle,50%
same,T>50%Cmax of codeine,"[2]; oral gavage, 1 mg free base equivalents codeine/kg, median (n=5)",2 h
same,delay of the passage of the charcoal meal (gut motility),gut motility in the rat,less than half the amount of codeine
COc1ccc2c3c1O[C@H]1C(OC(=O)CCC(=O)NC(C(=O)O)C(C)C)=CC[C@@]4(O)[C@@H](C2)N(C)CC[C@]314 (stereo in doubt) [oxycodone-[succinyl-(S)-valine] enol ester],AUCt of intact prodrug,[3]; [13],0.76 ng·h/mL and 1.70 ng·h/mL and 0.39 ng·h/mL and 0.32 ng·h/mL and 0.71 ng·h/mL
same,Cmax of intact prodrug,[3]; [13],1.29 ng/mL and 2.92 ng/mL and 0.57 ng/mL and 0.42 ng/mL and 1.02 ng/mL
same,T>50%Cmax of oxycodone,"[3]; male cynomolgus monkeys, oral, 1 mg oxycodone free base equivalents/kg, individual monkeys 1-5",1.54 h and 1.63 h and 3.45 h and 4.43 h and 1.38 h
same,T>50%Cmax of oxycodone,[3]; [14],2.49 h
same,T>50%Cmax of oxycodone,"[3]; male cynomolgus monkeys, oral, 1 mg oxycodone free base equivalents/kg, mean (n=5), listed as oxycodone succinyl valine ester",2.5 h
same,AUC(0-t),"[3]; male, cynomolgus monkey, plasma, po, 1 mg oxycodone base equivalents/kg, AUCt of intact prodrug, male cynomolgus monkeys, oral prodrug, 1 mg oxycodone free base equivalents/kg, mean (n=5)",0.78 ng·h/mL
same,Cmax,"[3]; male, cynomolgus monkey, plasma, po, 1 mg oxycodone base equivalents/kg, Cmax of intact prodrug, male cynomolgus monkeys, oral prodrug, 1 mg oxycodone free base equivalents/kg, mean (n=5)",1.24 ng/mL
same,prodrug Cmax as % of Cmax of the active drug,"[3]; monkeys, oral prodrug",~7%
same,AUC of oxycodone,"[3]; monkeys, oral, 1 mg oxycodone base equivalents/kg",42.3 ng/h/mL
same,AUC,"[4]; male, beagle, dog, plasma, other: intranasal insufflation, 0.25 mg oxycodone free base equivalents/kg, AUC of intact prodrug, mean",10.3 ng·h/mL
same,AUC(0-t),"[4]; male, beagle, dog, plasma, other: intranasal insufflation, 0.25 mg oxycodone free base equivalents/kg, AUCt of intact prodrug, mean",5.93 ng·h/mL
same,Cmax,"[4]; male, beagle, dog, plasma, other: intranasal insufflation, 0.25 mg oxycodone free base equivalents/kg, Cmax of intact prodrug, mean",4.87 ng/mL
same,Tmax,"[4]; male, beagle, dog, plasma, other: intranasal insufflation, 0.25 mg oxycodone free base equivalents/kg, Tmax of intact prodrug, median",15 min
same,half-life,"[4]; male, beagle, dog, plasma, other: intranasal insufflation, 0.25 mg oxycodone free base equivalents/kg, calculated as ln2/mean k",45 min
same,half-life,"[4]; male, beagle, dog, plasma, other: intranasal insufflation, 0.25 mg oxycodone free base equivalents/kg, individual dogs",51 min
same,Tmax of intact prodrug,[4]; individual dogs,60 min
same,EC50,[1],2 µM
same,reduction in the opioid effects compared to oxycodone itself,[1]; guinea pig ileal smooth muscle,10 fold
same,Simulated gastric fluid (pH 1.1): % remaining after 2 h/37° C.,"[5]; pH 1.1, 2 h, 37° C.",98%
same,Distilled water (pH 5.9): % remaining after 2 h/20° C.,"[5]; pH 5.9, 2 h, 20° C.",100%
same,Simulated intestinal fluid (pH 6.8): % remaining after 2 h/37° C.,"[5]; pH 6.8, 2 h, 37° C.",85%
same,pH 10.0 buffer: % remaining after 2 h/20° C.,"[5]; pH 10.0, 2 h, 20° C.",64%
same,AUC(0-t),"[6]; female, Sprague Dawley, rat, plasma, po, AUCt of intact prodrug, oral prodrug, mean (BLQ taken as zero)",1.24 ng·h/mL
same,Cmax,"[6]; female, Sprague Dawley, rat, plasma, po, Cmax of intact prodrug, oral prodrug, mean (BLQ taken as zero)",2.35 ng/mL
same,Tmax,"[6]; female, Sprague Dawley, rat, plasma, po, Tmax of intact prodrug, oral prodrug, median",22.5 min
same,AUCt of intact prodrug,[6]; [15],3.53 ng · h/mL and 2.55 ng · h/mL and BLQ (2×) and 0.131 ng · h/mL
same,Cmax of intact prodrug,[6]; [15],6.77 ng/mL and 2.00 ng/mL and BLQ and 1.93 ng/mL and 1.05 ng/mL
same,Tmax of intact prodrug,[6]; [15],90 min
same,T>50%Cmax of oxycodone,"[6]; individual rats, listed as Oxycodone succinyl valine enol ester",11.8 h (2×) and 3.5 h and 3.75 h and 2 h
same,T>50%Cmax of oxycodone,"[6]; median, listed as Oxycodone succinyl valine enol ester",3.75^a h
same,T>50%Cmax of oxycodone,"[6]; median, listed as oxycodone succinyl valine ester",3.75 h
same,T>50%Cmax of oxycodone,[2]; [16],1.5 h (3×) and 2.5 h (2×)
same,T>50%Cmax of oxycodone,"[2]; oral gavage, median (n=5)",1.5^a h
same,"period for which plasma concentrations were maintained above 50% of Cmax, compared to the drug itself","[2]; oral, oxycodone in plasma",three times longer
same,T50% Cmax of oxycodone,[7],1.6 (±0.3) h.
same,"% change from vehicle-treated animals, small intestine",gut motility in the rat; 10 mg/kg,−12.1%
same,"% change from vehicle-treated animals, total gut length",gut motility in the rat; 10 mg/kg,−11.2%
same,"% change from vehicle-treated animals, small intestine",gut motility in the rat; 30 mg/kg,−15.8%
same,"% change from vehicle-treated animals, total gut length",gut motility in the rat; 30 mg/kg,−15.6%
same,delay of the passage of the charcoal meal (gut motility),gut motility in the rat,~16%
same,"% change from vehicle-treated animals, small intestine",gut motility in the rat; 100 mg/kg,−35.4%
same,"% change from vehicle-treated animals, total gut length",gut motility in the rat; 100 mg/kg,−35.0%
"COc1ccc2c3c1O[C@H]1[C@@H](O)CC[C@H]4[C@@H](C2)N(C)CC[C@@]341 [Dihydrocodeine, dihydrocodeine, reference compound]",EC50,[1],5 µM
same,T>50%Cmax of dihydrocodeine,[2]; [16],0.5 h
same,T>50%Cmax of dihydrocodeine,"[2]; oral gavage, median (n=5)",0.5^a h
same,T>50%Cmax of dihydrocodeine,"[2]; oral gavage, median (n=5), listed as dihydrocodeine",0.5 h
same,delay of the passage of the charcoal meal (gut motility),gut motility in the rat,~30%
"CCC1(c2cccc(O)c2)CCCCN(C)C1 (stereo not drawn) [Meptazinol, meptazinol, reference compound]",oral bioavailability,[8],< 10%
same,Cmax,[9],2 to 5 ng/mL
"COc1ccc2c3c1O[C@H]1C(=O)CC[C@@]4(O)[C@@H](C2)N(C)CC[C@]314.Cl [Oxycodone HCl, oxycodone hydrochloride, reference compound]",T>50%Cmax of oxycodone,"[3]; male cynomolgus monkeys, oral, 1 mg oxycodone free base equivalents/kg, individual monkeys 1-5, hydrochloride",1.84 h and 1.18 h and 1.89 h and 2.37 h and 1.79 h
same,T>50%Cmax of oxycodone,[3]; [14],1.81 h
same,T>50%Cmax of oxycodone,"[6]; individual rats, hydrochloride",1.75 h (2×) and 0.75 h (2×) and 0.5 h
same,T>50%Cmax of oxycodone,[6]; median,0.75^a h
same,T>50%Cmax of oxycodone,[2]; [16],0.5 h
same,T>50%Cmax of oxycodone,"[2]; oral gavage, median (n=5)",0.5^a h
same,T50% Cmax of oxycodone,[7],2.0 (±0.6) h.
COc1ccc2c3c1O[C@H]1[C@@H](OC(=O)CCC(=O)N[C@H](C(=O)O)C(C)C)CCC4[C@@H](C2)N(C)CC[C@@]341 (stereo partly drawn) [dihydrocodeine-[succinyl-(S)-valine]ester],EC50,[1],20 µM
same,T>50%Cmax of dihydrocodeine,"[2]; oral gavage, median (n=5)",2 h
same,delay of the passage of the charcoal meal (gut motility),gut motility in the rat,8.5%
CCC(=O)Oc1ccc2c3c1O[C@H]1[C@@H](O)C=C[C@H]4[C@@H](C2)N(C)CC[C@@]341 [morphine-3-propionate],half-life of hydrolysis in human plasma,[10],less than 5 minutes
CC(C)[C@H](N)C(=O)OCCOCn1cnc2c(=O)nc(N)[nH]c21 [valine ester of acyclovir],chemical degradation in the GI tract before absorption,[11],15-25%
(Z)-3-[2-(propionyloxy)phenyl]-2-propanoic ester,bioavailability over meptazinol itself,[12],significant increase in bioavailability
